Experimental data as given in patent US7446226B2 (priority 2003, dated 2008).

What was measured:
Conditions in all cases: in vivo
[1] = test system: sea tulip Balanus improvisus
[2] = test system: total growth of marine organisms on the panels
[3] = test system: growth of marine organisms on the painted surfaces
[4] = test system: blue mussel Mytilus edulis

COc1cc(CNC(=O)CCCC/C=C/C(C)C)ccc1O [capsaicin, (E)-8-methyl-N-vanillyl-6-nonenamide]
Coverage of the sea tulip Balanus improvisus compared with the 2 other treatments [1]: significantly lower | Reduction in growth measured as coverage of the sea tulip [1]: 74% | Reduction in growth measured as a reduction in wet weight of total growth [2]: 64% | Wet weight of the total growth on the panels compared with the two other treatments [2]: statistically lower growth | Growth on surfaces by optical comparison with the control surfaces [3]: considerably less growth | Coverage of the blue mussel Mytilus edulis, difference between the 3 treatments [4]: no statistically significant difference
